Measured values from US9440957B2, “Compounds and compositions for modulating EGFR Activity” (Novartis AG, priority 2012, dated 2016).
Where two headings read alike, the source gives them in different places.

What was measured:
H1975 (EGFR L858/T790M) = H1975 (EGFR L858/T790M) (Homo sapiens, UniProt P00533, L858R/T790M); assay: EGFR target modulation in H1975 cell line (phospho-EGFR Y1173 ELISA); assay type: cell-based
In short: (§1)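 Readout: luminescent pY1173-EGFR sandwich ELISA on cell lysates. Treatment: compound, 3 h, 37 °C.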

EGFR(L858R/T790M) = target: T1, EGFR(L858R/T790M) (Homo sapiens, UniProt P00533, L858R/T790M); assay: EGFR biochemical assay (HTRF), IC50 determinations
T1 construct: purchased from Carna (GST-a.a. 669-1210)
In short: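 Two formats were run: compound preincubated at room temperature with enzyme and biotin-TK peptide before ATP starts the reaction, or no preincubation with enzyme added last. Reactions ran 60 min at room temperature and were stopped with EDTA. Phosphopeptide was read by HTRF (PT66K/SAXL, 1 h).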

HEKn (EGFR WT) = HEKn (EGFR WT) (Homo sapiens, UniProt P00533); assay: EGFR target modulation in HEKn (EGFR-WT) cell line (phospho-EGFR Y1173 ELISA); assay type: cell-based; details: value outside parentheses
In short: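 Read-out was Y1173 phosphorylation, measured by chemiluminescent ELISA with anti-EGFR capture of lysates. HEKn keratinocytes (wild-type EGFR) were treated with compound for 3 h.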

HCC827 (Del E746-A750) = HCC827 (Del E746-A750) (Homo sapiens, UniProt P00533, DEL746-750); assay: EGFR target modulation in HCC827 cell line (phospho-EGFR Y1173 ELISA); assay type: cell-based
Description: EGFR Target Modulation in H1975, H3255 and HCC827 Cell Lines Tissue Culture. Cells were maintained in 10% FBS/RPMI supplemented with 100 μg/ml Penicillin/Streptomycin (Hyclone #SH30236.01). […] The cells were allowed to incubate overnight in a 37° C., 5% CO2 humidified tissue culture incubator. […] The serial diluted compounds were transferred to the plate containing cells by using a 50 nl Pin Head device (Perkin Elmer) and the cells were placed back in the incubator for 3 hours. Phospho-EGFR ([…]) Target Modulation Assay. The media was reduced to 20 ul using a Bio-Tek ELx 405 SelectTM plate washer. […] The plates were shaken at 4° C. for 20 minutes. An aliquot of 25 ul from each well was transferred to pEGFR(Y1173) ELISA plates for analysis. Phospho-EGFR ([…]) ELISA. Solid white high-binding ELISA plates (Greiner #781074) were coated with 5 ug/ml anti-EGFR capture antibody (R&D Systems #AF231) overnight in 50 mM carbonate/bicarbonate pH 9.5 buffer. Plates were blocked with 1% BSA (Sigma #A7030) in PBS for 1 hour at room temperature. Wash steps were carried out with a Bio-Tek ELx405 SelectTM using 4 cycles of 100 ul TBS-T (20 mM Tris, 137 mM NaCl, 0.05% Tween-20) per well. […] Lysis was allowed to occur for 20 minutes on ice. A 25 ul aliquot was added to each well of the blocked ELISA plate and incubated overnight at 4° C. with gentle shaking. […] After washing, 1:2,000 anti-rabbit-HRP (Cell Signaling #7074) in 0.2% BSA/TBS-T was added and incubated for 1 hour at room temperature. Chemiluminescent detection was carried out with SuperSignal ELISA Pico substrate (ThermoScientific #37069). Signal was read on EnVision plate reader using built-in UltraLUM setting. Data Analysis. Control cells treated with EGF were set to 100% maximum response. […] With these parameters, the IC50's for each compound in each cell line was calculated using non-linear curve fitting analysis.

H3255 (EGFR L858R) = H3255 (EGFR L858R) (Homo sapiens, UniProt P00533, L858R); assay: EGFR target modulation in H3255 cell line (phospho-EGFR Y1173 ELISA); assay type: cell-based
In short: as §1

[1] = target: human EGFR L858R (NIH/3T3 cells) (Homo sapiens, UniProt P00533, L858R); assay: EGFR target modulation in engineered NIH/3T3 cell lines (phospho-EGFR Y1068 AlphaLISA), EGFR L858R; assay type: cell-based; details: engineered NIH/3T3 cells, read-out: NIH3T3 IC50 (μM) EGFR (L858R)
In short: (§2)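 Engineered NIH/3T3 cells expressing EGFR variants treated 3 h at 37 °C with 12-point 1:3 compound series (top stock 10 μM); only WT cells stimulated with 50 ng/ml EGF for 5 min before lysis. Phospho-Y1068 measured by AlphaLISA with total-EGFR antibody; IC50 from non-linear fitting.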

[2] = target: human EGFR WT (NIH/3T3 cells, EGF-induced) (Homo sapiens, UniProt P00533); assay: EGFR target modulation in engineered NIH/3T3 cell lines (phospho-EGFR Y1068 AlphaLISA), EGFR WT; assay type: cell-based; details: engineered NIH/3T3 cells, read-out: NIH3T3 IC50 (μM) EGFR (WT)
In short: as §2

[3] = target: human EGFR L858R/T790M (NIH/3T3 cells) (Homo sapiens, UniProt P00533, L858R/T790M); assay: EGFR target modulation in engineered NIH/3T3 cell lines (phospho-EGFR Y1068 AlphaLISA), EGFR L858R/T790M; assay type: cell-based; details: engineered NIH/3T3 cells, read-out: NIH3T3 IC50 (μM) EGFR (L858R/T790M)
In short: as §2

[4] = EGFR (L858R/T790M) with 90 min pre-incubation, read-out: IC50 (μM) Column B
[5] = EGFR (L858R/T790M) with no pre-incubation, read-out: IC50 (μM) Column A

Sequence of HCC827 (Del E746-A750) (P00533 with tags, fused parts or gaps DEL746-750): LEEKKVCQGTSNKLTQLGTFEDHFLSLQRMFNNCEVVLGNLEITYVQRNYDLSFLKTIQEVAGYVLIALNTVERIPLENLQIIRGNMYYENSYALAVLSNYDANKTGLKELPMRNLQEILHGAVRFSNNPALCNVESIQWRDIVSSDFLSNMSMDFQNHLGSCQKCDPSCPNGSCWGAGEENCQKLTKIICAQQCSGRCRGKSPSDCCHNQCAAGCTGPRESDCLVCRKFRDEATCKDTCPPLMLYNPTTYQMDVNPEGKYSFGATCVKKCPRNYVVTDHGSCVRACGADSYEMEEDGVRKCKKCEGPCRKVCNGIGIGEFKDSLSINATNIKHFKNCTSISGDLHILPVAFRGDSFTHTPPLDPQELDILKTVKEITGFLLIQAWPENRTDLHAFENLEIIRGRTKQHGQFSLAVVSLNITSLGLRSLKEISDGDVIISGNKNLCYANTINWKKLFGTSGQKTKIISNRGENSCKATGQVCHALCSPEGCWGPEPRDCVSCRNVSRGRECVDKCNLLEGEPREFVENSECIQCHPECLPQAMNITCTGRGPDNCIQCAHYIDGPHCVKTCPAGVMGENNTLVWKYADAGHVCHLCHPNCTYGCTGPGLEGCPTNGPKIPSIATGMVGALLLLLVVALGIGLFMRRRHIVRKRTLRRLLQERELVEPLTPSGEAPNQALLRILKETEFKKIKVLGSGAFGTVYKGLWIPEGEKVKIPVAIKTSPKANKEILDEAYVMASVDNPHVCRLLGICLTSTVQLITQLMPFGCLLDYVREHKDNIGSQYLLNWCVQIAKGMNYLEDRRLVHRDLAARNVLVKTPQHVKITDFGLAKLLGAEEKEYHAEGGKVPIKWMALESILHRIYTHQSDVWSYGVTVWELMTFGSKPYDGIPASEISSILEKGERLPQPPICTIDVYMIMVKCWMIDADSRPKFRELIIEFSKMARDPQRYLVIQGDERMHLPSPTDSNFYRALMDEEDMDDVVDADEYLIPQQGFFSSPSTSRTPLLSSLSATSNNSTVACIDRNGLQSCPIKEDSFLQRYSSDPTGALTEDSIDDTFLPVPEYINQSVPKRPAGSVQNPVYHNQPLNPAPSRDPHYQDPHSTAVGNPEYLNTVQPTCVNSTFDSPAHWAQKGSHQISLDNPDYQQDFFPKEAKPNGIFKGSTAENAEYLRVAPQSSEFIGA
Sequence of H1975 (EGFR L858/T790M) (P00533 25-1210 T790M/L858R): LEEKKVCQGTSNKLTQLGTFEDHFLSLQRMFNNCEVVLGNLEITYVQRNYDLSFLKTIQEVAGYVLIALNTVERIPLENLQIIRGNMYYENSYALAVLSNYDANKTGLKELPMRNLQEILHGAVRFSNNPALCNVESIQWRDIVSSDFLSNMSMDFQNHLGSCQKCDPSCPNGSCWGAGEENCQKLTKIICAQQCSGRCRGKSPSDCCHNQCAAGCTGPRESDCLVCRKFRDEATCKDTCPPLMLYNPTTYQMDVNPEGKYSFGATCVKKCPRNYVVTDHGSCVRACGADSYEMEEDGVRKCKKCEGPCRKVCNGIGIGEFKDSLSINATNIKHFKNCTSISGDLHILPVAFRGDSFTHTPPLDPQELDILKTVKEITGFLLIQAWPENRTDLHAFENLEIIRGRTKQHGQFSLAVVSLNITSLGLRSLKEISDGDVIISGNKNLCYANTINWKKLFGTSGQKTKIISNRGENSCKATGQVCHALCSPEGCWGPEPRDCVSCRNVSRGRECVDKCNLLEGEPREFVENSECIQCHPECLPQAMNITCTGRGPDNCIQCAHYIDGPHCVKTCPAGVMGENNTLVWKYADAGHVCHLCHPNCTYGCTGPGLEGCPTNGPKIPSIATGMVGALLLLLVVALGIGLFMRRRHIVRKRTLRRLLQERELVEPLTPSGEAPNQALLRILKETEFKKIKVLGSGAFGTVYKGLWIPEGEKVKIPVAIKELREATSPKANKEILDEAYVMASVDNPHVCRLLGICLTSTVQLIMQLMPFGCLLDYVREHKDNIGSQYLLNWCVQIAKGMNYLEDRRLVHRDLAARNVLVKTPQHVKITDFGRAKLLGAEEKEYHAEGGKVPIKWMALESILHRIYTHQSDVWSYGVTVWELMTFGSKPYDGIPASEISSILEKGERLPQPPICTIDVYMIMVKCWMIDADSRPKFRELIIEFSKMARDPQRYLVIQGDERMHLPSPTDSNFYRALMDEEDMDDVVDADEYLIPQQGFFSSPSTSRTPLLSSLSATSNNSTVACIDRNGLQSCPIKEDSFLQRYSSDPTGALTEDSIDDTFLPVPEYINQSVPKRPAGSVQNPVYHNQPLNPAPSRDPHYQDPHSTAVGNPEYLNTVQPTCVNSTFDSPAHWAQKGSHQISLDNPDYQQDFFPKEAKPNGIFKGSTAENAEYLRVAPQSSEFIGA
Sequence of human EGFR L858R/T790M (NIH/3T3 cells) (P00533 25-1210 T790M/L858R): as above
Sequence of HEKn (EGFR WT) (P00533 25-1210): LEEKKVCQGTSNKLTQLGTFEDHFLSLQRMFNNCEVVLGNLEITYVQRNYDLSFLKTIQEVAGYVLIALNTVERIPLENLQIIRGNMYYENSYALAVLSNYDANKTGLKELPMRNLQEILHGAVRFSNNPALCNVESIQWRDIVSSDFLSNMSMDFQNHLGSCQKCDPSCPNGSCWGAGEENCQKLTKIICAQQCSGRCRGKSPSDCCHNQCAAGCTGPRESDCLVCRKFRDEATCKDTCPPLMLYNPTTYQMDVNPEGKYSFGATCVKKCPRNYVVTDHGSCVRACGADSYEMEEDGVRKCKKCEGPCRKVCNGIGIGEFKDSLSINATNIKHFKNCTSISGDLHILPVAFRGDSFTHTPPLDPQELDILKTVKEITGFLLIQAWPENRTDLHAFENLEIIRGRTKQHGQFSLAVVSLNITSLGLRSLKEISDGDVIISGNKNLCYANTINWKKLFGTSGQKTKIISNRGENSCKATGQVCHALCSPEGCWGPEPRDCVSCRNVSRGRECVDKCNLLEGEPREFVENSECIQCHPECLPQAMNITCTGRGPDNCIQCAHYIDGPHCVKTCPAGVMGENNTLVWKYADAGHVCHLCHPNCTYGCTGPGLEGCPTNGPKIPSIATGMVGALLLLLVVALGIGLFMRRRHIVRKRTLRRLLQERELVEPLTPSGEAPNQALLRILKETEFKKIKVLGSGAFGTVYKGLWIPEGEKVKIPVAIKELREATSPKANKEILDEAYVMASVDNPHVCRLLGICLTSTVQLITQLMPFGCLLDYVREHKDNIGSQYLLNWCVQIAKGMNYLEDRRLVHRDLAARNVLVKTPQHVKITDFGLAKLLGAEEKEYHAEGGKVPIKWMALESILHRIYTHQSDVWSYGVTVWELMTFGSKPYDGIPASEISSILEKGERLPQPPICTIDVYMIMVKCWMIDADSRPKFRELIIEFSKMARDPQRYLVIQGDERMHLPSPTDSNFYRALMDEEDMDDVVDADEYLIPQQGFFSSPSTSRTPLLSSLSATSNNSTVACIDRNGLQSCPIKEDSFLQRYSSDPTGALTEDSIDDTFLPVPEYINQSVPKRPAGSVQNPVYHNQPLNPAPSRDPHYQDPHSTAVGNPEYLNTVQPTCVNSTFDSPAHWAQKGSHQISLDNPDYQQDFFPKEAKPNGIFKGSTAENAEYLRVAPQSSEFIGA

Row | IC50 (H1975 (EGFR L858/T790M)) [nM] | IC50 (EGFR(L858R/T790M); [4]) [µM] | IC50 (EGFR(L858R/T790M); [5]) [µM] | IC50 (HEKn (EGFR WT)) [nM] | IC50 (HCC827 (Del E746-A750)) [nM] | IC50 (H3255 (EGFR L858R)) [nM] | IC50 [1] [µM] | IC50 [2] [µM] | IC50 [3] [µM] | Structure (SMILES)
1 | 39 | 0.004 | 0.054 | 4500 | 31 | 50 |  |  |  | C/C=C/C(=O)N1CCCC[C@@H](n2c(NC(=O)c3cc(C)nc(C)c3)nc3cc(CN4CC[C@H](F)C4)cc(C)c32)C1 [Example 17-165]
2 | 58 | 0.005 | 0.055 | 2270 | 9 | 73 |  |  |  | C/C=C/C(=O)N1CCCC[C@@H](n2c(NC(=O)c3ccnc(C)c3)nc3cc(CN4CCCC4)cc(C)c32)C1 [Example 17-164]
3 | 117 | 0.006 | 0.097 | 4200 | 38 | 106 |  |  |  | COc1cc2nc(NC(=O)c3ccnc(C)c3)n([C@@H]3CCCCN(C(=O)/C=C/CN(C)C)C3)c2cc1Cl [Example 17-178]
4 | 105 | 0.006 | 0.135 | > 10000 |  | 156 | 0.062 | 1.4 | 0.058 | Cc1cc(C(=O)Nc2nc3cccc(C)c3n2[C@@H]2CCCN(C(=O)/C=C/CN(C)C)C2)ccn1 [Example 17-4]
5 | 2 | < 0.001 | 0.005 | 176 |  | 7 | 0.005 | 0.062 | 0.002 | COc1cncc(C(=O)Nc2nc3cccc(C)c3n2[C@@H]2CCCCN(C(=O)/C=C/CN(C)C)C2)c1 [Example 17-79]
6 | 8 | < 0.001 | 0.008 | 269 |  | 9 | 0.006 | 0.281 | 0.009 | C=CC(=O)N1CCCC[C@@H](n2c(NC(=O)c3cnnc(C)c3)nc3cc(CN4CCCC4)cc(C)c32)C1 [Example 17-161]
7 | 10 | < 0.001 | 0.005 | 313 |  | 37 | 0.003 | 0.167 | 0.004 | Cc1cccc2nc(NC(=O)c3ccc(F)c(F)c3)n(C3CCCCN(C(=O)/C=C/CN(C)C)C3)c12 (stereo not drawn) [Example 17-30]
8 | 2 | < 0.001 | 0.002 | 320 |  | 5 | 0.003 | 0.103 | < 0.001 | Cc1cccc2nc(NC(=O)c3cccc(S(C)(=O)=O)c3)n(C3CCCCN(C(=O)/C=C/CN(C)C)C3)c12 (stereo not drawn) [Example 17-52]
9 | 7 | < 0.001 | 0.006 | 142 |  | 3 | 0.002 | 0.057 | 0.003 | COc1ccc(C(=O)Nc2nc3cccc(C)c3n2C2CCCCN(C(=O)/C=C/CN(C)C)C2)cn1 (stereo not drawn) [Example 17-45]
10 | 5 | < 0.001 | 0.005 | 190 |  | 15 | 0.003 | 0.139 | 0.005 | Cc1cccc2nc(NC(=O)c3ccc(F)cc3)n(C3CCCCN(C(=O)/C=C/CN(C)C)C3)c12 (stereo not drawn) [Example 17-26]
11 | 1 | < 0.001 | 0.002 | 45 |  | 2 | 0.001 | 0.031 | < 0.001 | C=CC(=O)N1CCCC[C@@H](n2c(NC(=O)c3ccnnc3)nc3cccc(C)c32)C1 [Example 17-94]
12 | 132 | 0.005 | 0.092 | 212 |  | 5 | 0.002 | 0.057 | 0.031 | Cc1cccc2nc(NC(=O)c3ccc(C(F)(F)F)nc3)n(C3CCCCN(C(=O)/C=C/CN(C)C)C3)c12 (stereo not drawn) [Example 17-46]
13 | 2 | < 0.001 | < 0.002 | 251 |  | 26 | 0.002 | 0.057 | < 0.001 | Cc1cccc2nc(NC(=O)c3cccc(C(F)(F)F)c3)n(C3CCCCN(C(=O)/C=C/CN(C)C)C3)c12 (stereo not drawn) [Example 17-25]
14 | < 1 | < 0.001 | 0.001 | 100 |  | 4 | 0.002 | 0.143 | < 0.001 | C=CC(=O)N1CCCC[C@@H](n2c(NC(=O)c3ccccc3)nc3cccc(CN4CCC(O)C4)c32)C1 (stereo partly drawn) [Example 17-114]
15 | 6 | < 0.001 | 0.012 | 259 |  | 22 | 0.017 | 0.204 | 0.006 | C=CC(=O)N1CCCC[C@@H](n2c(NC(=O)c3ccnnc3)nc3cccc(Cl)c32)C1 [Example 17-15]
16 | 2 | < 0.001 | 0.003 | 249 |  | 15 | 0.004 | 0.05 | 0.001 | Cc1cccc2nc(NC(=O)c3cncc(C(F)(F)F)c3)n([C@@H]3CCCCN(C(=O)/C=C/CN(C)C)C3)c12 [Example 17-67]
17 | 186 | 0.011 | 0.133 | > 10000 |  | 200 | 0.05 | 1.13 | 0.123 | Cc1cc(C(=O)Nc2nc3cccc(Cl)c3n2[C@@H]2CCCCN(C(=O)/C=C/CN3CCC3)C2)ccn1 [Example 3-12]
18 | 1 | < 0.001 | 0.002 | 71 |  | 6 | 0.001 | 0.02 | < 0.001 | Cc1cccc2nc(NC(=O)c3cncc(F)c3)n([C@@H]3CCCCN(C(=O)/C=C/CN(C)C)C3)c12 [Example 17-69]
19 | 78 | 0.005 | 0.09 | 4900 |  | 81 | 0.022 | 0.56 | 0.041 | Cc1nccc(C(=O)Nc2nc3cccc(C)c3n2C2CCCCN(C(=O)/C=C/CN(C)C)C2)n1 (stereo not drawn) [Example 17-54]
20 | 3 | < 0.001 | 0.004 | 220 |  | 12 | 0.004 | 0.063 | 0.001 | Cc1cc(C(=O)Nc2nc3cccc(C)c3n2[C@@H]2CCCCN(C(=O)/C=C/CN(C)C)C2)cc(C)n1 [Example 17-72]
21 | 38 | 0.003 | 0.038 | 2080 |  | 111 | 0.043 | 0.6 | 0.02 | CC(C)Oc1cccc2nc(NC(=O)c3ccnnc3)n([C@@H]3CCCCN(C(=O)/C=C/CN(C)C)C3)c12 [Example 17-85]
